In brackets after ≈: the same amount, converted by molar mass. Like-named read-outs stand apart in the source and are kept apart here.
Experiments:
[1] = tested on: Mtb; assay: Isoniazid MIC shift on Mtb MIC plates (broth microdilution MIC); format: cell-based, M. tuberculosis
[2] = tested on: M. tuberculosis CDC1551; assay: microbe, parasite or virus in culture; format: cell-based; settings: for MIC: Mycobacterium tuberculosis
[3] = tested on: M. tuberculosis constitutively expressing the luxABCDE operon; assay: microbe, parasite or virus in culture; format: cell-based
[4] = tested on: M. tuberculosis; assay: Minimum Bactericidal Concentration (MBC); format: cell-based; settings: Mycobacterium tuberculosis
[5] = tested on: M. tuberculosis CDC1551; assay: In vitro kill kinetics / time-kill (FIG. 2, FIG. 3); format: cell-based
[6] = in vitro; format: in vitro ADME; settings: human
Experimental: (§1) Caco-2 cells were diluted to 6.86×10^6 cells/mL, dispensed into a 96-well HTS Transwell plate, and cultured for 14 to 18 days. 6-azasteroids at 5 μM was incubated at 37° C. for 2 hours with the Caco-2 cell monolayer in HBSS buffer (10 mM HEPES, pH 7.4) containing 5% BSA. Aliquots from donor sides (apical compartment for Ap→Bl flux, and basolateral compartment for Bl→Ap) and receiver sides (basolateral compartment for Ap→Bl flux, and apical compartment for Bl→Ap) were separated and extracted by acetonitrile or methanol containing appropriate internal standards (IS). The concentration of 6-azasteroid was determined by LC-MS/MS analysis.
(§2) Elution rate: 0.65 mL/min.
(§3) To predict absorption via oral administration, Caco-2 bidirectional permeability assay was performed (Table 8).

[7] = tested on: Caco-2 cell line; assay: in vitro; format: in vitro ADME
Experimental: as §1, §2, §3

[8] = biological target: T1, hERG (Homo sapiens, UniProt Q12809); assay: hERG assay (hERG currents in HEK 293 cells); format: cell-based; settings: hERG stably expressed HEK 293 cells
T1 construct: expressed in transfected cells
Experimental: hERG stably expressed HEK 293 cells were seeded at 5×10^5 cells/per 6 cm cell culture dish and induced with doxycycline at 1 μg/mL for 48 hours. Compound at the final concentrations of 30, 10, 3.33, 1.11 and 0.37 μM was applied to the cells accumulatively, post-compound hERG currents were recorded, and IC50 was calculated. Dofetilide was used as a positive control.
To predict the potential cardiotoxic effects of 6-azastroids, human ether-a-go-go related gene (hERG) assay was applied to 100, 107 and 114 (Table 9). Cytotoxicity of 107 was also assessed (Table 10).

[9] = both, human, microsomes, 2 μM, pH 7.4
[10] = in vitro; settings: both, human, microsomes, pH 7.4
[11] = Metabolic stability in human liver microsomes; settings: both, pH 7.4

T1 sequence (Q12809 whole entry): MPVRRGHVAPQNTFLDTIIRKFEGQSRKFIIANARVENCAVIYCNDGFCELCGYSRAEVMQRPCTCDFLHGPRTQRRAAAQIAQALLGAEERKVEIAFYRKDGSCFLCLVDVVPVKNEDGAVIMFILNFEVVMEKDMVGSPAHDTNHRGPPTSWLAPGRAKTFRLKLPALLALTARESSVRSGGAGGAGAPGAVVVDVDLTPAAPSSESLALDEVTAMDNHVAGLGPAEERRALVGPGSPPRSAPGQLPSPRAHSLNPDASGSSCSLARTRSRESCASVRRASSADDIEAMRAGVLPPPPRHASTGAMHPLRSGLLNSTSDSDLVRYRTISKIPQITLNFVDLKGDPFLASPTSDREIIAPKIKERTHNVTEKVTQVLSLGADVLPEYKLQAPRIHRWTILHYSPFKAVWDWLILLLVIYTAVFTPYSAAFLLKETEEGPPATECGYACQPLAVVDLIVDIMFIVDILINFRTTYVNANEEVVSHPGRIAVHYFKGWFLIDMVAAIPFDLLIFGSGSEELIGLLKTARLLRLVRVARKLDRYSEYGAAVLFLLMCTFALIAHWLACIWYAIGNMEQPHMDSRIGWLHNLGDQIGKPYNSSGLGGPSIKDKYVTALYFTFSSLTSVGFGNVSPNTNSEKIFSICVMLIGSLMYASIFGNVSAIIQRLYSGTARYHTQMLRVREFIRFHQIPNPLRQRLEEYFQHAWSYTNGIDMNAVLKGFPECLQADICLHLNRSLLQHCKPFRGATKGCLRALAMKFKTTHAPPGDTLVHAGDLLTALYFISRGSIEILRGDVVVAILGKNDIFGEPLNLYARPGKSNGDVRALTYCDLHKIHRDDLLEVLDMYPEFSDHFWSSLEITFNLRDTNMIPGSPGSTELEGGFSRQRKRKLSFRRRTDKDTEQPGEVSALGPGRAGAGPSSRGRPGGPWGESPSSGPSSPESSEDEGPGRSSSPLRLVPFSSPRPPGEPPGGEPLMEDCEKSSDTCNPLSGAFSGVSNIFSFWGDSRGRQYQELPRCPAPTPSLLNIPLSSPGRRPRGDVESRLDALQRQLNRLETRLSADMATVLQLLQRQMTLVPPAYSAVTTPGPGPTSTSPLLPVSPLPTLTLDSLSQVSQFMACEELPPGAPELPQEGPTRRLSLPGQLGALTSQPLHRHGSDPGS

CC(C)(C)OC(=O)N1CC2C(CC[C@@]3(C)C2CC[C@@H]3C(=O)Nc2cc(C(F)(F)F)ccc2C(F)(F)F)[C@@]2(C)CCC(=O)C=C12 (some centres unmarked) [Compound 103]
Isoniazid MIC shift [1]: +++ (>10-fold +++)

COc1nc(OC(F)(F)F)c(NC(=O)C2CCC3C4CNC5=CC(=O)CC[C@]5(C)C4CC[C@]23C)cc1Br (some centres unmarked) [Compound 105]
Isoniazid MIC shift [1]: + (2-4-fold +)
MIC ([2]; CDC1551, Pa (pretomanid) with 10 μM 6-azasteroid, read-out: Aerobic MIC of Pa): 0.0002 µM

COc1c(N2C[C@@H]3CCCN[C@@H]3C2)c(F)cc2c(=O)c(C(=O)O)cn(C3CC3)c12 [MOXI, moxifloxacin]
MIC ([2]; CDC1551, TB drug alone, read-out: Aerobic MIC): 0.18 µM (≈ 0.0723 µg/mL)

CC(C)(C)c1cc(NC(=O)[C@H]2CCC3C4CNC5=CC(=O)CC[C@]5(C)C4CC[C@@]32C)cc(C(C)(C)C)c1 (some centres unmarked) [Compound 109]
Isoniazid MIC shift [1]: ++ (4-8-fold ++)

CC(=O)NC[C@H]1CN(c2ccc(N3CCOCC3)c(F)c2)C(=O)O1 [LIN, linezolid]
MIC ([2]; CDC1551, read-out: Aerobic MIC): 0.8 µM (≈ 0.27 µg/mL)

CCCN1CC2C(CC[C@@]3(C)C2CC[C@@H]3C(=O)Nc2cc(C(C)(C)C)ccc2C(C)(C)C)[C@@]2(C)CCC(=O)C=C12 (some centres unmarked) [Compound 114]
Isoniazid MIC shift [1]: +++ (>10-fold +++)
Aerobic MIC of CLOF ([2]; CLOF with 10 μM 6-azasteroid): NC^b
MIC ([2]; CDC1551, BDQ with 10 μM 6-azasteroid, read-out: Aerobic MIC of BDQ): < 0.0015 µM
MIC ([3]; Mycobacterium tuberculosis, INH with 55 μM 6-azasteroid, read-out: LORA MIC of INH): 2.75 µM
activity under low oxygen conditions ([3]; in combination with isoniazid): active
MBC ([4]; 504 h, single compound, 2-log kill in 21 days, read-out: MBC): > 40 µM
MBC ([4]; BDQ with 10 μM 114, read-out: MBC of BDQ): 0.025 µM
MBC ([4]; INH with 13 μM 114, read-out: MBC of INH): 0.7 µM
effect on bactericidal activity of bedaquiline [5]: improves bactericidal activity of bedaquiline
rapid killing with mono-treatment ([5]; mono-treatment at 10-20 μM, 15 days, FIG. 2): no rapid killing in 15 days
efflux ratio at 2 h, 5 μM ([6]; Caco-2, pH 7.4, Efflux Ratio): 0.87
Papp A→B at 2 h, 5 μM ([6]; Caco-2, pH 7.4, Papp(A-B)): 0.85 ×10⁻⁶ cm/s
efflux ratio at 2 h, 5 μM ([6]; Caco-2, pH 7.4, efflux ratio): ~0.5
substrate for P-gp transporter ([7]; Caco-2): not a substrate for P-gp transporter
intestinal absorption suggested by Papp(A-B) ([7]; human, Caco-2, 5 μM, pH 7.4): over 50%
Efflux Ratio ([7]; human, Caco-2, 2 h, 5 μM, pH 7.4): 0.48
IC50 [8]: 0.739 µM
Remaining Percentage with NADPH, 0 min ([9]; 0 h): 100.00%
Remaining Percentage with NADPH, 15 min ([9]; 0.25 h): 24.89%
Remaining Percentage with NADPH, 30 min ([9]; 0.5 h): 4.76%
Remaining Percentage with NADPH, 45 min ([9]; 0.75 h): 1.68%
Remaining Percentage with NADPH, 60 min ([9]; 1 h): 0.96%
microsomal CLint at 2 μM [10]: 73.2 µL/min/mg
half-life at 2 μM [11]: 18.9 min

CN1CC2C(CC[C@@]3(C)C2CC[C@@H]3C(=O)Nc2cc(C(C)(C)C)ccc2C(C)(C)C)[C@@]2(C)CCC(=O)C=C12 (some centres unmarked) [Compound 113]
Isoniazid MIC shift [1]: +++ (>10-fold +++)

CCc1cc(C(N)=S)ccn1 [ETH, ethionamide]
MIC ([2]; CDC1551, read-out: Aerobic MIC): 12.5 µM (≈ 2.08 µg/mL)
